Laboratory results taken from patent publication US10538555B2, “Macrocyclic inhibitors of the PD-1/PD-L1 and CD80(B7-1)/PD-L1 protein/protein interactions” (BRISTOL-MYERS SQUIBB COMPANY, priority 2014, dated 2020).
pIC50: −log10 of the molar value. *1 amine or outer side, *2 acyl side, *3 side chain or, on linkers, in order; H or OH if unused. Where a SMILES comes first, the peptide text is derived from it. Bridges are numbered along the chain shown (N, C = ends). [ ]: non-standard residue; d: D form. ξ: configuration not given here. Trp(1-CH2COOH) = N[C@@H](Cc1cn(CC(=O)O)c2ccccc12)C(=O)O; Phe(3,4,5-F3) = N[C@@H](Cc1cc(F)c(F)c(F)c1)C(=O)O; Morpholine(3S-CO) = O=C(O)[C@@H]1COCCN1; d(cisHyp) = O=C(O)[C@H]1C[C@@H](O)CN1; Hyp = O=C(O)[C@@H]1C[C@@H](O)CN1; NMeF = CN[C@@H](Cc1ccccc1)C(=O)O; X1 = O=C([C@H]1COCCN1[*:1])[*:2]; dHyp = O=C(O)[C@H]1C[C@H](O)CN1; NMehSer = CN[C@@H](CCO)C(=O)O; NMeNle = CCCC[C@H](NC)C(=O)O; hSer = N[C@@H](CCO)C(=O)O; NMeA = CN[C@@H](C)C(=O)O; Orn = NCCC[C@H](N)C(=O)O; Dab = NCC[C@H](N)C(=O)O; Dap = NC[C@H](N)C(=O)O; ξC = NC(CS)C(=O)O; Sar = CNCC(=O)O

These molecules were tested against T1, Human PD-L1/PD-1 (Homo sapiens, UniProt Q9NZQ7) (assay: HTRF Human PD-L1/PD-1 binding assay (PD-1-Ig/PD-L1-His)). Conditions: PD-L1-His 10 nM, PD-1-Ig 20 nM; class symbol; read-out: HTRF Human PD-L1/PD-1 Binding Assay IC50 Range.
T1 construct: TVMV protease cleavage site (C); made in house; host or cells: HEK293T cells
T1 sequence (Q9NZQ7 with tags, fused parts or gaps): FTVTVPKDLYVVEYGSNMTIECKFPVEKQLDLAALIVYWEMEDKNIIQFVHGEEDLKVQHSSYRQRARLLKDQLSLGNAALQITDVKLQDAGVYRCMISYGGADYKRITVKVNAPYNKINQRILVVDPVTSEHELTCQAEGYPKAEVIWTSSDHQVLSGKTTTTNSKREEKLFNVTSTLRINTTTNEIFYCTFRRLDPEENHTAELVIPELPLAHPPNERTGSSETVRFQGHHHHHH
How it was run: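 Soluble HEK293T-expressed proteins: hPD-L1-His 10 nM, hPD-1-Ig 20 nM final. Cpd + PD-L1 15 min, + PD-1 15 min, + Eu anti-Ig 1 nM/APC anti-His 20 nM 30 min. Buffer dPBS, 0.1% BSA, 0.05% Tween-20. TR-FRET 665/620.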

pIC50	Compound
8.00 to 9.00	COCC[C@H]1C(=O)N2C[C@@H](O)C[C@@H]2C(=O)N[C@@H](CC(=O)O)C(=O)N[C@@H](C(C)C)C(=O)N(C)[C@@H](Cc2ccccc2)C(=O)N[C@@H](Cc2ccc(O)cc2)C(=O)N2CCOC[C@@H]2C(=O)N[C@@H](Cc2c[nH]c3ccccc23)C(=O)N[C@@H](Cc2ccc(O)cc2)C(=O)N[C@@H](CCCN)C(=O)N[C@H](C(=O)NCC(N)=O)CSCC(=O)N[C@@H](Cc2cc(F)c(F)c(F)c2)C(=O)N(C)[C@@H](Cc2ccccc2)C(=O)N1C [Example 9265] ({CH2CO}-[Phe(3,4,5-F3)][NMeF][NMehSer](Me)[dHyp]DV[NMeF]Y[X1]WY[Orn]CG-NH2; thioether N-13)
8.00 to 9.00	CCCC[C@H]1C(=O)N(C)[C@@H](CCCC)C(=O)N[C@@H](CC(C)C)C(=O)N[C@H](C(=O)NCC(N)=O)CSCC(=O)N[C@@H](Cc2ccc(O)cc2)C(=O)N(C)[C@@H](C)C(=O)N[C@@H](CC(N)=O)C(=O)N2CCC[C@H]2C(=O)N[C@@H](CN)C(=O)N[C@@H](CC(C)C)C(=O)N2C[C@H](O)C[C@H]2C(=O)N[C@@H](Cc2c[nH]c3ccccc23)C(=O)N[C@@H](CCCCN)C(=O)N[C@@H](Cc2cn(CC(=O)O)c3ccccc23)C(=O)N1C [Example 6296] ({CH2CO}-Y[NMeA]NP[Dap]L[Hyp]WK[Trp(1-CH2COOH)][NMeNle][NMeNle]LCG-NH2; thioether N-14)
5.00 to 6.00	CCCC[C@H]1C(=O)N[C@@H](CC(N)=O)C(=O)N2CCC[C@H]2C(=O)N[C@@H](CO)C(=O)N[C@@H](CCO)C(=O)N2C[C@H](O)C[C@H]2C(=O)N[C@@H](Cc2c[nH]c3ccccc23)C(=O)N[C@@H](CCO)C(=O)N[C@@H](Cc2c[nH]c3ccccc23)C(=O)N(C)[C@@H](C)C(=O)N(C)[C@@H](C)C(=O)N[C@@H](CCCCN)C(=O)NC(C(=O)NCC(N)=O)CSCC(=O)N[C@@H](Cc2ccc(O)cc2)C(=O)N1C (stereo partly drawn) [Example 10217] ({CH2CO}-Y[NMeNle]NPS[hSer][Hyp]W[hSer]W[NMeA][NMeA]K[ξC]G-NH2; thioether N-14)
8.00 to 9.00	CCCC[C@H]1C(=O)N(C)[C@@H](CCCC)C(=O)N[C@@H](CC(C)C)C(=O)N[C@H](C(=O)NCC(N)=O)CSCC(=O)N[C@@H](Cc2ccc(O)cc2)C(=O)N(C)[C@@H](C)C(=O)N[C@@H](CC(N)=O)C(=O)N2CCC[C@H]2C(=O)N[C@@H](CN)C(=O)N[C@@H](CC(C)C)C(=O)N(C)CC(=O)N[C@@H](Cc2c[nH]c3ccccc23)C(=O)N[C@@H](CCN)C(=O)N[C@@H](Cc2cn(CC(=O)O)c3ccccc23)C(=O)N1C [Example 6170] ({CH2CO}-Y[NMeA]NP[Dap]L[Sar]W[Dab][Trp(1-CH2COOH)][NMeNle][NMeNle]LCG-NH2; thioether N-14)
7.00 to 8.00	CCCC[C@H]1C(=O)N(C)[C@@H](CCCC)C(=O)N[C@@H](C)C(=O)N[C@H](C(=O)NCC(N)=O)CSCC(=O)N[C@@H](Cc2ccc(O)cc2)C(=O)N2CCOC[C@H]2C(=O)N[C@@H](CC(=O)O)C(=O)N2CCC[C@H]2C(=O)N[C@@H](CN)C(=O)N[C@@H](CC(C)C)C(=O)N2C[C@H](O)C[C@H]2C(=O)N[C@@H](Cc2c[nH]c3ccccc23)C(=O)N[C@@H](CO)C(=O)N[C@@H](Cc2c[nH]c3ccccc23)C(=O)N1C [Example 1522] ({CH2CO}-Y[Morpholine(3S-CO)]DP[Dap]L[Hyp]WSW[NMeNle][NMeNle]ACG-NH2; thioether N-14)

Same assay, conditions: PD-L1-His 10 nM, PD-1-Ig 20 nM; read-out: HTRF Human PD-L1/PD-1 Binding Assay IC50

pIC50	Compound
8.24	CCCC[C@H]1C(=O)N2C[C@@H](O)C[C@@H]2C(=O)N[C@@H](CC(=O)O)C(=O)N[C@@H](C(C)C)C(=O)N(C)[C@@H](Cc2ccccc2)C(=O)N[C@@H](CCC(=O)O)C(=O)N2C[C@H](O)C[C@@H]2C(=O)N[C@@H](Cc2c[nH]c3ccccc23)C(=O)N[C@@H](Cc2ccc(O)cc2)C(=O)N[C@@H](CCCN)C(=O)N[C@H](C(=O)NCC(N)=O)CSCC(=O)N[C@@H](Cc2cc(F)c(F)c(F)c2)C(=O)N(C)[C@@H](Cc2ccccc2)C(=O)N1C [Example 9370] ({CH2CO}-[Phe(3,4,5-F3)][NMeF][NMeNle][dHyp]DV[NMeF]E[d(cisHyp)]WY[Orn]CG-NH2; thioether N-13)
